Experimental findings from patent US12357669B1, “Modification of natural compounds to create products with enhanced health benefits” (priority 2024, dated 2025) are described below.

The experiment relates to patient with continuously active ulcerative colitis (UC). Briefly: observations in a patient with continuously active ulcerative colitis (UC). Format: in vivo, human. The conditions noted are these: components without prior formation of the chelate/complex. An excerpt:
Many patients with ulcerative colitis have remitting/recurring disease activity which occurs spontaneously at random times. Other factors, such as changes in diet, stress, intercurrent use of medications either to control symptoms of UC or used to treat other conditions, such as antibiotics non steroidal pain medications and steroids, may make inflammation and symptoms worse or better depending on their particular properties.
Some patients with UC have unremitting continuously active disease which never goes into remission spontaneously. Such patients make excellent study subjects since the action of compounds designed to reduce disease activity and symptoms can be evaluated without the complicating factor of spontaneous changes in disease severity.
In the patient studied in this report disease activity was observed over several decades and was continuously active with no spontaneous remissions.

Regarding iron, the “amelioration of the symptoms of ulcerative colitis” value was “not seen”.
